Structures are written as SMILES. Entries after “also recorded” stand apart in the source; their conditions may differ.

Data set [1] concerns sterol response element (SRE). In words: SRE-luc reporter assay in HepG2 cells. Format: cell-based, human. In a few lines:
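HepG2 cells stably carrying an SRE (LDLR) promoter–NlucP reporter, grown in medium with charcoal-stripped FBS. Treated with compounds for 24 hr at 37 °C, then lysed and nanoluciferase luminescence read.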
On the technique in general: Reporter assays use an easily measured gene product as a stand-in for the process of interest.

The next data set deals with ABCA1. The experiment in a line: ABCA1-luc reporter assay in CCF-STTG1 astrocytoma cells. Format: cell-based, human. Conditions: normalized to T0. The source says: Astrocytoma CCF-STTG1 cells, stably transfected with an ABCA1-promoter linked to a luciferase response element, provide a model for ABCA1 induction in astrocytes ([Ben Aissa et al., 2021]). […] Apparent inverse agonist activity in cell-based assays can result from ‘true’ inverse agonist recruitment of corepressors or from antagonist activity towards endogenous sterol LXR agonists. Although we use serum-stripped media, antagonism of endogenous LXR agonists cannot be ruled out.
Low passage CCF-STTG1 cells (20,000 cells/well) were seeded in 96-well plates in media containing charcoal-stripped FBS and incubated at 37 °C and 5% CO2 for 24 hr prior to a 24 hr treatment. All compounds were dissolved in DMSO, and final DMSO concentrations never exceeded 1%. After a 24 hr incubation period, add a volume of ONE-GLOEX Reagent that is equal to the volume of culture medium in each well and incubate for 3–5 min on the shaker. The luminescent activity of compounds ([…], 10-fold dilution) was examined using the ONE-GLOEX assay (Promega). […] The assays were performed in duplicates for each concentration, and the EC50 values were determined from non-linear regression analysis of the dose-response curve generated in GraphPad Prism 9.

Another data set has as its system HepG2 cells. In words: Cell viability in HepG2 cells under SRE-luc conditions. Format: cell-based, human. Conditions: conditions of SRE-luc measurements. The source says: Figure 5. Lipogenic response of HepG2 cells to treatment with liver X receptor (LXR) ligands. […] See Figure 3—figure supplement 1 for biological replicates. […] See Figure 5—figure supplement 1 for full concentration-response curves. Figure 5—figure supplement 1. Response of HepG2 cells to treatment with liver X receptor (LXR) ligands. (A–B) Lipogenic response of HepG2 cells to treatment with liver X receptor (LXR) ligands showing full concentration-response curves for biphenyl compounds shown in Figure 5E–F. (C) Cell viability in HepG2 cells under identical conditions to those used to obtain sterol response element (SRE)-luc data. [drawing 5]

The test system of a further data set is LXR. In words: Corepressor (NCOR2, SMRT2) binding to LXR, CRT, statements across isoforms. Conditions: monoplex CRT, absence of coactivator. Format: biochemical.
Data set [2] concerns mouse model of non-alcoholic steatohepatitis (NASH). Also noted: method as in Griffett et al., 2015; Griffett and Burris, 2016. Conditions: ref Griffett et al., 2015; Griffett and Burris, 2016; cited from earlier work.
Data set [3] concerns the target T1, LXRα (Homo sapiens, UniProt Q13133).
T1 sequence (Q13133 209-447 limits assumed): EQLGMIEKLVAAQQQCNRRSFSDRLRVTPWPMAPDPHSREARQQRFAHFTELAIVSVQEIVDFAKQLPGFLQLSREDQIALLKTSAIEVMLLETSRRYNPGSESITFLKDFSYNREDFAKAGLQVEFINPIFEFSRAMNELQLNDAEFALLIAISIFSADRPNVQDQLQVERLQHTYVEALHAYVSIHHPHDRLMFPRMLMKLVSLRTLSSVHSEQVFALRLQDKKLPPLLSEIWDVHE
The experiment in a line: NCOR2 corepressor binding to LXRα, CRT. Format: biochemical. Further details: The CRT selectivity assay incorporates GST-tagged LXR-LBD; purchased Thermo Fisher Scientific PV4657. Conditions: read-out: NCOR2α, relative % activity at 1 μM.

Data set [4] addresses T1, LXRα. In words: SMRT2 corepressor binding to LXRα, CRT. Conditions: read-out: SMRT2α, relative % activity at 1 μM. Format: biochemical. Also noted: The CRT selectivity assay incorporates GST-tagged LXR-LBD; purchased Thermo Fisher Scientific PV4657.
Setting [5] is: ligand 1 µM, interpolated from concentration-response, normalized, heat map Figure 9A.

Consider `Cc1cc(C)c(S(=O)(=O)N(Cc2ccc(-c3cccc(S(C)(=O)=O)c3)cc2)Cc2ccc(C(F)(F)F)o2)c(C)c1` [GSK2033], for which the “SRE activation response/phenotype in HepG2” value in data set [1] is reported as “neutral or antagonist response”. The “ABCA1 induction response/phenotype in CCF cells” value with ABCA1 is recorded as “inverse agonist activity in cells”. Also, the HepG2 cell viability/cytotoxicity entry in the data set on HepG2 cells is on record as “no loss of cell viability”. Besides, in the data set on LXR, the “Corepressor (NCOR2, SMRT2) displacement or stabilization, across LXR isoforms” value is “little or no ability to displace NCOR2 and SMRT2 corepressors from LXR; also recorded: does not stabilize a conformation that disrupts corepressor binding to LXRα”. Also, the “Hepatic effects in NASH mouse model” value in data set [2] is reported as “no beneficial effects on hepatic steatosis”. The activity at 1 µM at LXRα [3] (setting [5]) was found to be 97.7%; on LXRα [4] (setting [5]), 92.9%.

In the case of `CCOC(=O)c1ccc(CN(Cc2ccc(-c3cccc(S(C)(=O)=O)c3)cc2)S(=O)(=O)c2c(C)cc(C)cc2C)o1` [SR9238], in data set [1], the “SRE activation response/phenotype in HepG2” value is “lowered SRE activation below baseline; also recorded: neutral or antagonist response; also recorded: inverse agonist at <3 µM concentration”. The “ABCA1 induction response/phenotype in CCF cells” value with ABCA1 was “inverse agonist activity in cells”. Besides, in the data set with HepG2 cells, the HepG2 cell viability/cytotoxicity entry is “no loss of cell viability”. The “Corepressor (NCOR2, SMRT2) displacement or stabilization, across LXR isoforms” value with LXR is recorded as “strong agonist responses”. Also, in data set [2], the “Hepatic effects in NASH mouse model” value is “significantly reduced hepatic inflammation and fibrosis”. Further, the activity at 1 µM on LXRα [3] and at LXRα [4] was 64.5% throughout.

Values taken from publication PMC13286573, “Exploration of precision coregulator TR-FRET identifies diverse signatures for LXR ligands relevant to discovery of nonlipogenic ABCA1 inducers” (eLife, 2026).
